Assay results reported in the supplement of paper PMC10883282.

Assays:
Assay in all cases: relative viability vs DMSO control (72 h) (fraction); higher = more viable cells
A204 = tested on: A204
In short: (§1)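 Serially diluted compound, 2.5 µl from source plates spanning 10 mM to 0.0002 mM, was added 24 h after sarcoma cell lines were seeded in 384-well plates at densities targeting 80–90% confluence. Plates then sat 72 h at 37 °C, 5% CO2, with 0.1% DMSO vehicle and a 5 µM positive control. Relative viability came from ATPLite as percent growth, averaged over up to triplicate wells, and was rescaled with 1 as full and 0 as none.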

G401 = tested on: G401
In short: as §1

HS729 = tested on: HS729
In short: as §1

KHOS-NP = tested on: KHOS-NP
In short: as §1

MES-SA = tested on: MES-SA
In short: as §1

RD = tested on: RD
In short: as §1

SK-ES-1 = tested on: SK-ES-1
In short: as §1

SK-LMS-1 = tested on: SK-LMS-1
In short: as §1

SW684 = tested on: SW684
In short: as §1

SW872 = tested on: SW872
In short: as §1

SYO-1 = tested on: SYO-1
In short: as §1

VA-ES-BJ = tested on: VA-ES-BJ
In short: as §1

CNC(=O)c1cccc2cc(Oc3ccnc4cc(OCC5(N)CC5)c(OC)cc34)ccc12 [Lucitanib]
Conditions	relative viability
A204, 0.00017 µM	1.04
A204, 0.00051 µM	1.07
A204, 0.00152 µM	1.04
A204, 0.00457 µM	1.01
A204, 0.01372 µM	0.859
A204, 0.04115 µM	0.584
A204, 0.1235 µM	0.421
A204, 0.3704 µM	0.391
A204, 1.111 µM	0.265
A204, 3.333 µM	0.172
A204, 10 µM	0.153
G401, 0.00017 µM	1.07
G401, 0.00051 µM	1.04
G401, 0.00152 µM	1.02
G401, 0.00457 µM	0.989
G401, 0.01372 µM	1
G401, 0.04115 µM	1.01
G401, 0.1235 µM	0.964
G401, 0.3704 µM	0.888
G401, 1.111 µM	0.641
G401, 3.333 µM	0.451
G401, 10 µM	0.349
HS729, 0.00017 µM	1.08
HS729, 0.00051 µM	1.07
HS729, 0.00152 µM	1.07
HS729, 0.00457 µM	1.04
HS729, 0.01372 µM	1.01
HS729, 0.04115 µM	0.983
HS729, 0.1235 µM	0.915
HS729, 0.3704 µM	0.866
HS729, 1.111 µM	0.692
HS729, 3.333 µM	0.618
HS729, 10 µM	0.568
KHOS-NP, 0.00017 µM	1.103
KHOS-NP, 0.00051 µM	1.13
KHOS-NP, 0.00152 µM	1.12
KHOS-NP, 0.00457 µM	1.11
KHOS-NP, 0.01372 µM	1.11
KHOS-NP, 0.04115 µM	1.11
KHOS-NP, 0.1235 µM	1.126
KHOS-NP, 0.3704 µM	1.11
KHOS-NP, 1.111 µM	1.12
KHOS-NP, 3.333 µM	1.12
KHOS-NP, 10 µM	1.13
MES-SA, 0.00017 µM	0.983
MES-SA, 0.00051 µM	0.976
MES-SA, 0.00152 µM	0.965
MES-SA, 0.00457 µM	0.957
MES-SA, 0.01372 µM	0.978
MES-SA, 0.04115 µM	0.955
MES-SA, 0.1235 µM	0.95
MES-SA, 0.3704 µM	0.961
MES-SA, 1.111 µM	0.813
MES-SA, 3.333 µM	0.615
MES-SA, 10 µM	0.265
RD, 0.00017 µM	1.08
RD, 0.00051 µM	1.12
RD, 0.00152 µM	1.1
RD, 0.00457 µM	1.13
RD, 0.01372 µM	1.09
RD, 0.04115 µM	1.129
RD, 0.1235 µM	1.13
RD, 0.3704 µM	1.142
RD, 1.111 µM	1.144
RD, 3.333 µM	1.12
RD, 10 µM	0.9078
SK-ES-1, 0.00017 µM	1.07
SK-ES-1, 0.00051 µM	1.12
SK-ES-1, 0.00152 µM	1.09
SK-ES-1, 0.00457 µM	1.11
SK-ES-1, 0.01372 µM	1.01
SK-ES-1, 0.04115 µM	1.07
SK-ES-1, 0.1235 µM	1
SK-ES-1, 0.3704 µM	1.07
SK-ES-1, 1.111 µM	1.01
SK-ES-1, 3.333 µM	0.865
SK-ES-1, 10 µM	0.531
SK-LMS-1, 0.00017 µM	1.071
SK-LMS-1, 0.00051 µM	1.09
SK-LMS-1, 0.00152 µM	1.056
SK-LMS-1, 0.00457 µM	1.08
SK-LMS-1, 0.01372 µM	1.04
SK-LMS-1, 0.04115 µM	1.03
SK-LMS-1, 0.1235 µM	0.988
SK-LMS-1, 0.3704 µM	0.999
SK-LMS-1, 1.111 µM	0.958
SK-LMS-1, 3.333 µM	0.8754
SK-LMS-1, 10 µM	0.758
SW684, 0.00017 µM	1.14
SW684, 0.00051 µM	1.23
SW684, 0.00152 µM	1.26
SW684, 0.00457 µM	1.23
SW684, 0.01372 µM	1.21
SW684, 0.04115 µM	1.21
SW684, 0.1235 µM	1.15
SW684, 0.3704 µM	1.18
SW684, 1.111 µM	1.19
SW684, 3.333 µM	1.12
SW684, 10 µM	1.11
SW872, 0.00017 µM	1.07
SW872, 0.00051 µM	1.08
SW872, 0.00152 µM	1.056
SW872, 0.00457 µM	1.07
SW872, 0.01372 µM	1.07
SW872, 0.04115 µM	1.059
SW872, 0.1235 µM	1.038
SW872, 0.3704 µM	1.057
SW872, 1.111 µM	1.07
SW872, 3.333 µM	1.04
SW872, 10 µM	0.961
SYO-1, 0.00017 µM	1.03
SYO-1, 0.00051 µM	1.04
SYO-1, 0.00152 µM	1.01
SYO-1, 0.00457 µM	0.984
SYO-1, 0.01372 µM	0.919
SYO-1, 0.04115 µM	0.825
SYO-1, 0.1235 µM	0.688
SYO-1, 0.3704 µM	0.561
SYO-1, 1.111 µM	0.504
SYO-1, 3.333 µM	0.49
SYO-1, 10 µM	0.385
VA-ES-BJ, 0.00017 µM	1.08
VA-ES-BJ, 0.00051 µM	1.07
VA-ES-BJ, 0.00152 µM	1.09
VA-ES-BJ, 0.00457 µM	1.091
VA-ES-BJ, 0.01372 µM	1.1
VA-ES-BJ, 0.04115 µM	1.11
VA-ES-BJ, 0.1235 µM	1.12
VA-ES-BJ, 0.3704 µM	1.13
VA-ES-BJ, 1.111 µM	1.16
VA-ES-BJ, 3.333 µM	1.14
VA-ES-BJ, 10 µM	0.914
